{"source": "patent US9993449B2", "about": "“(S)-3-amino-4-(difluoromethylenyl)cyclopent-1-ene-1-carboxylic acid, and related compounds as GABA aminotransferase inactivators for the treatment of epilepsy, addiction and hepatocellular carcinoma” (NORTHWESTERN UNIVERSITY, priority 2015, dated 2018)", "key": {"[1]": {"target": "T1, ornithine aminotransferase (OAT) (Homo sapiens, UniProt P04181)", "T1 sequence (P04181 26-439)": "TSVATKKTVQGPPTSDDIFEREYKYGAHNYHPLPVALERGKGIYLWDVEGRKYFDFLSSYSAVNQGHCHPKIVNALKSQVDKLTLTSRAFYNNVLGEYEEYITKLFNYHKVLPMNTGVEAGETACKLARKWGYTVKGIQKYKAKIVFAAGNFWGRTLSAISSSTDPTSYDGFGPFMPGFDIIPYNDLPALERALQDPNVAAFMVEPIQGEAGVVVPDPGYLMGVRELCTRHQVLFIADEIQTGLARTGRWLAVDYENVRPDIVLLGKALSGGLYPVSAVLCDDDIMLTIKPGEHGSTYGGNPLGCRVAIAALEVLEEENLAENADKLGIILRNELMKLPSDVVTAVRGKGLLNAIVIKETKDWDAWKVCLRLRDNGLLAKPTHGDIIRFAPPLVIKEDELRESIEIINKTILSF", "details": "read-out: KI for inactivation of OAT", "procedure": "All assays were performed in duplicate, and the remaining OAT activity at each preincubation time at each inhibitor concentration was averaged. The natural logarithm of the percentage of the remaining OAT activity was plotted against the preincubation time at each inhibitor concentration to obtain the kobs (slope) value for each concentration. The kobs is the rate constant describing the inactivation at each inhibitor concentration. kobs is replotted against the inhibitor concentration using nonlinear regression analysis (GraphPad Prism 6™; GraphPad Software Inc.). KI and kinact were estimated from equation (3):"}, "[2]": {"assay": "Metabolic stability in human liver microsomes (LC-MS/MS)", "assay_type": "in vitro ADME", "details": "for 90 min", "description": "This was accomplished by incubating 1 with the microsomes and monitoring its disappearance with time using LC-MS/MS. Terfenadine was run in similar condition as a positive control."}, "[3]": {"test_system": "striatal dopamine levels", "assay": "MicroPET imaging with 11C-raclopride: cocaine- or nicotine-induced dopamine elevation in freely moving rats", "assay_type": "in vivo, rat", "description": "Drug addiction results from the release of dopamine in the NAcc when an addictive substance is ingested. The effect of 1 on the release of dopamine in freely moving rats was determined using in vivo micropositron emission tomography (microPET) imaging (FIG. 10). (Dewey, S. L.; Morgan, A. E.; Ashby, C. R.; Horan, B.; Kushner, S. A.; Logan, J.; Volkow, N. D.; Fowler, J. S.; Gardner, E. L.; Brodie, J. D. Synapse 1998, 30 (2), 119-129). […] MicroPET was used to measure the dissociation of the tracer [^11C]-raclopride from dopamine receptors caused by either cocaine- or nicotine-induced increases in synaptic dopamine levels (the same images were obtained with cocaine and nicotine). When animals received cocaine (n=8) or nicotine (n=6), striatal dopamine levels were rapidly elevated. (Dewey, S. L.; Chaurasia, C. S.; Chen, C. E.; Volkow, N. D.; Clarkson, F. A.; Porter, S. P.; Straughter-Moore, R. M.; Alexoff, D. L.; Tedeschi, D.; Russo, N. B.; Fowler, J. S.; Brodie, J. D. Synapse 1997, 25 (4), 393-398). […] Therefore, 1 blocks both cocaine- and nicotine-induced elevations in dopamine.\nMicroPET imaging. Adult male rats (Sprague-Dawley, 200-250 grams, n =16) were obtained from Taconic Farms. Animals were maintained on a 12/12 light-dark cycle. Scanning was performed using a Siemen's Inveon. All emission scans were corrected for attenuation. Animals received baseline microPET scans using either ^11C-raclopride or ^18FDG as described previously. (Patel, V. D.; Lee, D. E.; Alexoff, D. L.; Dewey, S. L.; Schiffer, W. K. Neuroimage 2008, 41 (3), 1051-1066.) Uptake of both radiotracers occurred while animals were awake and freely moving. Immediately prior to microPET scanning, all animals were anesthetized and maintained under isoflurane."}, "[4]": {"assay": "Plasma protein binding", "assay_type": "in vitro ADME"}, "[5]": {"test_system": "glucose metabolism in the hippocampus", "assay": "MicroPET imaging with 18FDG: cocaine-induced increases in glucose metabolism in freely moving rats", "assay_type": "in vivo, rat", "details": "18FDG microPET, statistical parametric map, p<0.00001, Hydrochloride", "source_text": "In addition to labeled raclopride studies, [^18F]-2′-fluoro-2′-deoxy-D-glucose (^18FDG) and microPET were also used to examine the regional effects of 1 on cocaine-induced increases in glucose metabolism. ^18FDG is an analogue of glucose that gets taken up into neurons (or any cells in the human body) just like glucose. However, after ^18FDG is phosphorylated, the corresponding 6′-phosphate cannot be further metabolized in the glycolytic pathway and remains in cells. Consequently, human PET studies have used ^18 FDG for decades to map the brain. […] When a human or a rat receives a psychostimulant like cocaine, dopamine floods the synapse, causing post-synaptic neurons to fire frantically. Because this neuronal firing requires energy in the form of glucose, the result is that brain glucose metabolism increases in specific brain regions. The effect of 1 on cocaine-induced increases in glucose metabolism in freely moving rats was determined using statistical parametric mapping, in which all of the images from the cocaine-only animals were added together and then compared to the images obtained from the same animals that received 1 and cocaine. A statistical threshold (p<0.00001) was set, and a statistical parametric map, an image showing all the pixels that were statistically different between the two conditions, was generated and then overlaid on an MRI of the rat brain (FIG. 11). […]"}}, "note": "Entries after “also recorded” stand apart in the source; their conditions may differ. Counter-ions that a name gives are not always drawn."}
{"smiles": "N[C@H]1C=C(C(=O)O)CC1=C(F)F", "note": "[Compound 1, (S)-3-Amino-4-(difluoromethylenyl)cyclopent-1-ene-1-carboxylic acid Hydrochloride]", "values": [{"measurement": "KI (inactivation)", "setting": "[1]", "value": 3.3, "unit": "µM"}, {"measurement": "metabolic stability in HLM", "setting": "[2]", "value": "stable"}, {"measurement": "suppressing the release of dopamine in the NAcc following a cocaine or nicotine challenge, compared with CPP-115", "setting": "[3]", "value": "superior to CPP-115"}, {"measurement": "cocaine-induced elevations in dopamine", "setting": "[3]; 1 given prior to cocaine, 11C-raclopride microPET", "value": "blocks"}, {"measurement": "nicotine-induced elevations in dopamine", "setting": "[3]; 1 given prior to nicotine, 11C-raclopride microPET", "value": "blocks"}, {"measurement": "fraction unbound", "setting": "[4]", "value": 0.73}, {"measurement": "cocaine-induced activation (metabolic demand) in the hippocampus", "setting": "[5]", "value": "attenuated; also recorded: all gone"}]}
